The results in this text go back to patent US20250114472A1, “CONJUGATE AND USE THEREOF” (BEIJING CHEMPION BIOTECHNOLOGY CO., LTD., priority 2022, published 2025).

SMILES strings stand for the structures. Where a SMILES comes first, the peptide text is derived from it. [ ]: non-standard residue; d: D form. The star is where a group is joined. Dolaproine = CO[C@@H]([C@@H]1CCCN1)[C@@H](C)C(=O)O; Dil = CC[C@H](C)[C@H](NC)[C@@H](CC(=O)O)OC; X1 = C[C@@H](N*)[C@@H](O)c1ccccc1; NMeV = CN[C@H](C(=O)O)C(C)C

This assay has as its system NCI-N87 cells. As to the kind of experiment: Cytotoxicity assay (Cell Titer Glo cell viability). The note with it: 144 hours, CTG. In kind it is cell-based.

Description: Cell viability assay was used to detect the cytotoxicity of an ADC antibody on NCI-N87 cells. This method can quantitatively analyze and specifically detect the cytotoxicity of an ADC antibody on NCI-N87 cells. Cells cultured without addition of ADC antibody were used as a blank control to determine the threshold of the cell viability detection. A signal below this threshold was considered as a specific signal generated after the ADC antibody killed cells. NCI-N87 cells (5×10^3 cells/well) were resuspended in a RPMI1640 medium containing 15% FBS and inoculated into a black 96-well plate with transparent bottom in a volume of 50 μL. The 96-well plate was placed in an incubator set at 37° C. and 5% CO2 overnight. After the overnight incubation, 50 μL of different concentrations of ADC antibodies or MMAE (starting from 400 nM, 4-fold serial dilution) were added to the 96-well plate (making the total volume to 100 μL/well), and the 96-well plate was placed in an incubator set at 37° C. and 5% CO2 for 144 hours. Cell Titer Glo (50 μL/well) was added to each well and the mixture was thoroughly mixed. The luciferase intensity was read using Envision. The cytotoxic effect was calculated using the following formula: cytotoxicity %=100* (RFUcell only−RFUsample)/RFUcell only. The IC50 value was calculated by four-parameter nonlinear regression analysis using GraphPad Prism 7 software.

As for `CC[C@H](C)[C@@H]([C@@H](CC(=O)N1CCC[C@H]1[C@H](OC)[C@@H](C)C(=O)N[C@H](C)[C@@H](O)c1ccccc1)OC)N(C)C(=O)[C@@H](NC(=O)[C@@H](NC)C(C)C)C(C)C` [MMAE, monomethyl auristatin E] (H-[NMeV]V[Dil][Dolaproine]-X1), where the note is “from 400 nM”, the “Max Inh %” value stood at 90.41%. For the setting “Homo sapiens”, this compound came in with an IC50 of 0.12 nM.
